These results are taken from EP0254534A2, “Erythromycin derivatives and compositions and use for inhibiting virus replication and disease” (Robinson, William S., priority 1986, dated 1988).

Assay [1] concerns DHBV. As to the kind of experiment: In vivo replication of DHBV in chronically infected Pekin ducks; serum viral DNA by slot blot hybridization. As for the experimental part:
A sample of 9-0-methyloximinyl erythromycin A (EMO) in solution at a concentration of 100 mg/ml in dimethyl sulfoxide (DMSO) was administered subcutaneously at a dose of 15 mg/kg/day for 14 days to a group of 10-week old Pekin ducks chronically infected with DHBV (experimentally infected as described by Marion et al., "Liver Disease Associated with Duck Hepatitis B Virus Infection of Domestic Ducks", Proc. Natl. Acad. Sci. USA (1984) 81:898). Another group of 10-week old Pekin ducks were used as a control and treated with the same dose of DMSO alone. In vivo replication of virus was assessed by measuring levels of DHBV virus in the serum of infected animals before, during, and after treatment. Virus levels in serum were determined by quantitating the DNA of the virus by slot blot hybridization. Ten µl of each serum was made up to 0.1 M with NaOH to disrupt virus and denature the viral DNA. The samples were spotted on nylon membrane which binds single stranded DNA. The filter-bound viral DNA was detected by hybridization with a DHBV [³²P]- DNA probe followed by autoradiography. The quantity of viral DNA in each serum sample, expressed as picograms of viral DNA/ml serum, was determined by comparing densitometer tracings of the exposed area of film overlying each serum spot on the nylon membrane with a standard curve derived from densitometer tracings for known amounts of DHBV DNA similarly spotted on the same nylon membrane.
EMO was administered beginning on day 8 for 14 days at the rate of 15 mg/kg/day. The low level was retained until day 22 (when EMO treatment was discontinued) thereafter the viral level began to climb and was followed to day 32, where the level reached about 650 picograms DHPV DNA/ml serum.
Table 2 summarizes the results of treatment of four animals with erythromycin A 9-0-methyloxime (EMO) in DMSO and four animals with DMSO alone as determined on day 22 after termination of administration of the drug after 14 days. Virus was similarly found to be suppressed by EMO treatment in each animal and not by DMSO.

For assay [2], the system named is HTLV III. As to the kind of experiment: Inhibition of growth of HTLV III in infected T-cell line (VB) in tissue culture; culture medium assayed by reverse transcriptase and P-24 ELISA. In kind it is cell-based. The following applies: HTLV III infected VB T-cells; for inhibition at 1 µg/mL: EMO 1 µg/ml; for inhibition at 5 µg/mL: EMO 5 µg/ml; for inhibition at 10 µg/mL: EMO 10 µg/ml; for inhibition at 20 µg/mL: EMO 20 µg/ml. As for the experimental part: A sample of 9-0-methyloximinyl erythromycin A (EMO) was tested for capacity to inhibit growth of HTLV III in tissue culture. A T-cell line (VB) was infected with HTLV III and infected cells were incubated with 0, 1, 5, 10 and 20 µgm EMO per ml of tissue culture medium. Culture medium was recovered after 0, 1, 2, 3, and 4 days of incubation and assayed for HTLV III production by reverse transcriptase and viral antigen (P-24) testing by ELISA.
For orientation: ELISA stands for enzyme-linked immunosorbent assay.

Where [3] appears, read: culture medium, read-out: % Reduction Reverse Transcriptase.
[4] abbreviates: viral antigen by ELISA, read-out: % Reduction P-24.

Several values for one entry are separate records, joined by “and”; a condition that tells them apart may be missing. Equal entries are not always repeated. Where two headings read alike, the source gives them in different places.

Consider `CCC1OC(=O)C(C)C(OC2CC(C)(OC)C(O)C(C)O2)C(C)C(OC2OC(C)CC(N(C)C)C2O)C(C)(O)CC(C)C(=NOC)C(C)C(O)C1(C)O` (centres unmarked) [EMO, 9-0-methyloximinyl erythromycin A], for which the “% Reduction in DHBV DNA In Serum After 14 Days Treatment” value in assay [1] (15 mg/kgm/day in DMSO, subcutaneous, 14 days, individual ducks (Animal No. 1-4), determined on day 22) is 100% (2×) and 96% and 94%. For the same compound, in assay [1] (by day 12 (EMO 15 mg/kg/day from day 8 for 14 days; 900 at day 0, maximum 1500 by day 8), low level retained until day 22), the “picograms of DHPV DNA/ml serum” value is “below the level of detection”. For the same compound, the “picograms of DHPV DNA/ml serum” value in assay [1] (day 32, 10 days after EMO treatment was discontinued (day 22)) was “about 650 picograms DHPV DNA/ml serum”. In assay [2] (setting [3]), the inhibition at 1 µg/mL turned out to be 10%, the inhibition at 5 µg/mL was determined as 50%, the inhibition at 10 µg/mL was 73% and the inhibition at 20 µg/mL was 82%. For the same compound, in assay [2] (setting [4]), the inhibition at 1 µg/mL was determined as 8%, the inhibition at 5 µg/mL came to 45%, the inhibition at 10 µg/mL worked out at 69% and the inhibition at 20 µg/mL stood at 86%.
